{"source": "patent US12589099B2", "about": "(priority 2021, dated 2026)", "key": {"[1]": {"tested_on": "moderate traumatic brain injury (TBI) induced by controlled cortical impact (CCI)", "assay": "Right forelimb adhesive removal test after TBI", "format": "in vivo, male Wistar rats", "procedure": "(§1) FIG. 2: The figure illustrates functional tests that are carried out on healthy (sham surgery) no treatment, vehicle treated and ALPHA-1062 treated rats to assess sensorimotor and cognitive function after TBI. Sensimotor function tests. a) The figure depicts tests to assess the modified neurological severity score (mNSS). […] The animal is required to balance over a grid and the frequency of steps missing the grid are counted. This test assesses the functionality of the injured parietal cortex of the rat's brain. c) The adhesive removal test consists of applying adhesive tape on each forepaw of the animal and measuring the time-to-contact and the time-to-remove them. This behavior requires correct paw and mouth sensitivity (time-to-contact) and correct dexterity (time-to-remove). Cognitive function tests: a) This picture illustrates the Morris water maze that comprises that a rat is placed in a large circular pool (picture on the left) and is required to find an invisible platform that allows it to escape the water by using various visuo-spatial cues. This test is used to study spatial learning and memory and assesses hippocampal and select cortical brain region function. Usually, the path of the rat through the pool is tracked (picture on the right) and the time spend in the proximity of the platform as well as the time needed until the platform is found by the rat are measured. b) For the new/novel object recognition (NOR) test, after a habituation time in the test space (picture on far left) rats are given the opportunity to explore two identical objects (A) for a predetermined period of time (picture in the middle). After a delay, the animals are then presented with two objects to explore, one of which is the same as in the first exploration trial (A), the other a new object (B) (picture on the right). Depending on the length of the delay between the two trials or depending on the extend of cortical damage, the rats will either explore the novel object for a greater time period, indicating memory for the familiar object, or will explore the novel and familiar objects for the same amount of time, indicating a lack of recall or loss of memory for the familiar object presented during the initial trial.\nYoung adult (2-3 months) male Wistar rats were subjected to a moderate traumatic brain injury (TBI) induced by controlled cortical impact (CCI). […]\nIn the adhesive removal test, an adhesive tape is applied to the right forepaw of an animal. Both the time-to-contact the adhesive (sensory perception), as well as the time-to-remove the adhesive (locomotor skill) are assessed by this test."}, "[2]": {"tested_on": "moderate traumatic brain injury (TBI) induced by controlled cortical impact (CCI)", "assay": "Morris water maze (MWM) test after TBI", "format": "in vivo, male Wistar rats", "procedure": "as §1\nYoung adult (2-3 months) male Wistar rats were subjected to a moderate traumatic brain injury (TBI) induced by controlled cortical impact (CCI). Animal models of TBI including the CCI model and functional tests have been described in detail in peer reviewed publications (Xiong et al., 2013, Nat Rev Neurosci.; Zhang et al., 2016, J Neurosurg.; Zhang et al., 2016, Neurochem Int.; Zhang et al., 2021, J Neurotrauma). Injury consisted of a single impact at 4.0 m/sec, 2.5 mm deformation to the left parietal cortex. In addition, a group of animals was left healthy/not injured to serve as a healthy control.\nThe animals were divided into 3 groups: • 1) TBI+Vehicle (purified water, n=10) • 2) TBI+ALPHA-1062 (4.5 mg/kg) (n=10) • 3) Healthy/not injured and not treated (Sham surgery) (n=10)\nThe substance used in this study was ALPHA-1062 at 4.5 mg/kg. As control treatment (vehicle) purified water was administered intranasally (IN). The ALPHA-1062 and the control treatment were initiated 2 hours after injury and continued twice daily (with a 6-hour interval) for 35 consecutive days.\nDuring the in vivo part of the study cognitive functional tests were performed by conducting Morris water maze (MWM) tests and novel object recognition tests on all animals at 5 weeks after TBI, with the MWM test being performed on days 31-35 following TBI (see Table 1).\nThe Morris water maze (MWM) is a test used in behavioral neuroscience to study spatial learning and memory, for example in rats. It enables spatial learning and memory to be studied, and can also be used to assess damage to hippocampus and select cortical regions of the brain. […]"}, "[3]": {"conditions": "4.5 mg/kg IN twice daily, days 33 to 35"}}, "data": [{"smiles": "COc1ccc2c3c1O[C@H]1C[C@@H](OC(=O)c4ccccc4)C=C[C@@]31CCN(C)C2", "note": "[ALPHA-1062, (4aS,6R,8aS)-5,6,9,10,11,12-hexahydro-3-methoxy-11-methyl-4aH-[1]benzofuro[3a,3,2-ef][2]benzazepin-6-ol benzoate]", "values": [{"measurement": "adhesive removal (right forelimb) compared to vehicle", "setting": "[1]; 4.5 mg/kg IN twice daily, from day 7 (D7) on (FIG. 6)", "value": "significantly better"}, {"measurement": "adhesive removal (right forelimb) compared to uninjured (sham) animals", "setting": "[1]; 4.5 mg/kg IN twice daily, starting on day 7 (D7), remainder of study", "value": "as well as the uninjured (sham) animals"}, {"measurement": "Adhesive Removal, performance over SHAM", "setting": "[1]; rats after TBI, compared to healthy sham animals", "value": "equivalent to"}, {"measurement": "Adhesive Removal, performance over VEHICLE", "setting": "[1]; rats after TBI, compared to vehicle treatment", "value": "superior"}, {"measurement": "MWM % time in the correct quadrant, compared to uninjured (sham surgery) animals", "setting": "[2]; [3]", "value": "equivalent amount of time"}, {"measurement": "MWM % time in the correct quadrant, compared to vehicle", "setting": "[2]; [3]", "value": "statistically significantly better"}, {"measurement": "MWM latency to find the hidden escape platform, compared to uninjured (sham) animals", "setting": "[2]; [3]", "value": "as well as the uninjured (sham) animals"}, {"measurement": "MWM latency to find the hidden escape platform, compared to vehicle", "setting": "[2]; [3]", "value": "statistically significantly better"}, {"measurement": "Morris Water Maze (MWM), performance over SHAM", "setting": "[2]; rats after TBI, ALPHA-1062 treatment compared to healthy sham animals", "value": "equivalent to"}, {"measurement": "Morris Water Maze (MWM), performance over VEHICLE", "setting": "[2]; rats after TBI, ALPHA-1062 treatment compared to vehicle treatment", "value": "superior"}]}]}
